Laboratory results published in PMC8319832, “Fine-Tuning of Alkaline Residues on the Hydrophilic Face Provides a Non-toxic Cationic α-Helical Antimicrobial Peptide Against Antibiotic-Resistant ESKAPE Pathogens” (Frontiers in Microbiology, 2021).
Values after ≈ are worked out from the molar mass of the structure shown. Where a SMILES comes first, the peptide text is derived from it.

Key:
E. coli ATCC25922 = assay: MIC, broth dilution; assay type: cell-based, Escherichia coli
E. faecalis 901 = assay: MIC, broth dilution; assay type: cell-based; conditions: CLSI broth dilution, MHB, 37°C, 20 h, OD630, at least three repeats; clinical isolate
Source text: (§1) All experiments were repeated at least three times.

S. epidermidis 6943 = assay: MIC, broth dilution; assay type: cell-based; conditions: CLSI broth dilution, MHB, 37°C, 20 h, OD630, at least three repeats; clinical isolate, MRSE
Source text: as §1

S. epidermidis 888 = assay: MIC, broth dilution; assay type: cell-based; conditions: CLSI broth dilution, MHB, 37°C, 20 h, OD630, at least three repeats; clinical isolate
Source text: as §1

S. epidermidis 9092 = assay: MIC, broth dilution; assay type: cell-based; conditions: CLSI broth dilution, MHB, 37°C, 20 h, OD630, at least three repeats; clinical isolate, MRSE
Source text: as §1

E. faecium 898 = assay: MIC, broth dilution; assay type: cell-based, Enterococcus faecium; conditions: CLSI broth dilution, MHB, 37°C, 20 h, OD630, at least three repeats; clinical isolate
Source text: as §1

E. coli 2678 = assay: MIC, broth dilution; assay type: cell-based, Escherichia coli; conditions: CLSI broth dilution, MHB, 37°C, 20 h, OD630, at least three repeats; clinical isolate, ESBL
Source text: as §1

E. coli 2687 = assay: MIC, broth dilution; assay type: cell-based, Escherichia coli; conditions: CLSI broth dilution, MHB, 37°C, 20 h, OD630, at least three repeats; clinical isolate, ESBL
Source text: as §1

E. coli ATCC35218 = assay: MIC, broth dilution; assay type: cell-based, Escherichia coli; conditions: CLSI broth dilution, MHB, 37°C, 20 h, OD630, at least three repeats; standard strain
Source text: as §1

P. aeruginosa ATCC 27853 = assay: MIC, broth dilution; assay type: cell-based, Pseudomonas aeruginosa
Protocol: as §1
(§2) To study the influence of physiological ions on the antimicrobial activities of the peptides, The MICs of the peptides were also determined against the standard bacterial strains cultured in MHB containing various salts at their physiological concentrations (150 mM NaCl, 4.5 mM KCl, 1 mM MgCl2, 2 mM CaCl2, 6 μM NH4HCO3, and 4 μM FeCl3) ([Ma et al., 2016]).

P. aeruginosa 9014 = assay: MIC, broth dilution; assay type: cell-based, Pseudomonas aeruginosa; conditions: CLSI broth dilution, MHB, 37°C, 20 h, OD630, at least three repeats; clinical isolate, CRE, MDR
Source text: as §1

P. aeruginosa 9042 = assay: MIC, broth dilution; assay type: cell-based, Pseudomonas aeruginosa; conditions: CLSI broth dilution, MHB, 37°C, 20 h, OD630, at least three repeats; clinical isolate
Source text: as §1

A. baumannii 13012 = assay: MIC, broth dilution; assay type: cell-based, Acinetobacter baumannii; conditions: CLSI broth dilution, MHB, 37°C, 20 h, OD630, at least three repeats; clinical isolate, CRE, MDR
Source text: as §1

A. baumannii 13079 = assay: MIC, broth dilution; assay type: cell-based, Acinetobacter baumannii; conditions: CLSI broth dilution, MHB, 37°C, 20 h, OD630, at least three repeats; clinical isolate, CRE, MDR
Source text: as §1

A. baumannii 9068 = assay: MIC, broth dilution; assay type: cell-based, Acinetobacter baumannii; conditions: CLSI broth dilution, MHB, 37°C, 20 h, OD630, at least three repeats; clinical isolate, CRE, MDR
Source text: as §1

A. baumannii 906 = assay: MIC, broth dilution; assay type: cell-based, Acinetobacter baumannii; conditions: CLSI broth dilution, MHB, 37°C, 20 h, OD630, at least three repeats; clinical isolate, CRE, MDR
Source text: as §1

[1] = tested on: K. pneumoniae ATCC 700603; assay: MIC, broth dilution; assay type: cell-based, Klebsiella pneumoniae
Protocol: as §1, §2

K. pneumoniae 9126 = assay: MIC, broth dilution; assay type: cell-based, Klebsiella pneumoniae; conditions: CLSI broth dilution, MHB, 37°C, 20 h, OD630, at least three repeats; clinical isolate, CRE
Source text: as §1

[2] = tested on: human embryonic kidney cell 293T (HEK293T); assay: Cytotoxicity, CCK-8; assay type: cell-based; conditions: up to 40 μg ml^–1, 24 h, CCK-8, OD 450 nm, three independent experiments
Protocol: (§3) The cytotoxicity of the peptide was determined against mouse fibroblast cells L929 and human embryonic kidney cell 293T (HEK293T). Briefly, the cells were seeded at a density of 8,000 cells per well in a 96-well plate and cultured for 24 h in Dulbecco’s Modified Eagle Medium (DMEM, Gibco) supplemented with 10% fetal bovine serum (FBS, Gibco), 2 mM L-glutamine, 100 U ml^–1 penicillin, […] streptomycin (1% P/S, Invitrogen^TM), and at 37°C in a 5% of CO2 atmosphere. Then, different concentrations of the peptide (0, 10, 20, 30, and 40 μg ml^–1) were added into each well and co-incubated with the cells for 24 h. After 2 h incubation with 10 μM 2-(2-methoxy-4-nitrophenyl)-3-(4-nitrophenyl)-5-(2,4-disulfophenyl)-2H-tetrazolium (CCK-8, Yeasen, China), the cytotoxicity of the peptide was determined by measuring the optical density at 450 nm ([Wu et al., 2014]; [Li et al., 2020]).

[3] = tested on: mouse fibroblast cells L929; assay: Cytotoxicity, CCK-8; assay type: cell-based; conditions: at 40 μg ml^–1, 24 h, CCK-8, OD 450 nm, three independent experiments
Protocol: as §3

healthy ICR mice = assay: In vivo systemic toxicity; design: species or system mouse
Protocol: Healthy ICR mice (male, 6–8 weeks old, ∼30 g) were used to determine the in vivo systemic toxicity of the peptide ([Chen et al., 2013]). The mice were randomly divided into six groups (n = 10). Five cohorts were intraperitoneally injected with a single dose of 10, 20, 40, 80, and 160 mg kg^–1 body weight of the peptide dissolved in PBS. The mice injected with PBS were used as control. The survival of mice was inspected for 7 days. All surviving mice were euthanized at the end of the experiments.
For histopathological examination, each group of ICR mice (n = 6) was injected intraperitoneally with PBS or with a single dose of 40 mg kg^–1 body weight of the peptide. At 1, 2, and 7-day post-injection, the mice were euthanized, and the liver, kidney and spleen were collected and fixed with 4% formaldehyde for haematoxylin and eosin staining.

[4] = tested on: ESBL-producing E. coli, CRE- and MDR P. aeruginosa, CRE- and MDR A. baumannii; assay: MIC, summary over resistant gram-negative strains; assay type: cell-based; conditions: summary of Table 4
Source text: as §1

[5] = CLSI broth dilution, MHB, 37°C, 20 h, OD630, at least three repeats, standard strain

Which results are given for CC[C@H](C)[C@H](NC(=O)[C@H](CCCCN)NC(=O)[C@H](CCCCN)NC(=O)[C@@H](NC(=O)[C@@H](N)Cc1ccccc1)[C@@H](C)CC)C(=O)N[C@@H](C)C(=O)N[C@@H](CCCCN)C(=O)N[C@@H](CC(C)C)C(=O)N[C@@H](CC(C)C)C(=O)N[C@@H](CCCCN)C(=O)N[C@@H](CCCCN)C(=O)N[C@H](C(=O)N[C@@H](Cc1ccccc1)C(N)=O)[C@@H](C)CC [BmKn2-7K] (H-FIKKIAKLLKKIF-NH2)?
MIC (E. coli ATCC25922; CLSI broth dilution, MHB, 6.25 × 10^5 cfu per ml, 37°C, 20 h, OD630, at least three repeats): 5 µg/mL (≈ 3.15 µM); MIC (E. coli ATCC25922; MHB with 4 μM FeCl3): 20 µg/mL (≈ 12.6 µM); MIC (E. coli ATCC25922; MHB with 6 μM NH4HCO3): 20 µg/mL (≈ 12.6 µM); MIC (E. faecalis 901): 10 µg/mL (≈ 6.29 µM); MIC (S. epidermidis 6943): 2.5 µg/mL (≈ 1.57 µM); MIC (S. epidermidis 888): 2.5 µg/mL (≈ 1.57 µM); MIC (S. epidermidis 9092): 2.5 µg/mL (≈ 1.57 µM); MIC (E. faecium 898): 5 µg/mL (≈ 3.15 µM); MIC (E. coli 2678): 10 µg/mL (≈ 6.29 µM); MIC (E. coli 2687): 10 µg/mL (≈ 6.29 µM); MIC (E. coli ATCC35218): 10 µg/mL (≈ 6.29 µM); MIC (P. aeruginosa ATCC 27853; [5]): 5 µg/mL (≈ 3.15 µM); MIC (P. aeruginosa ATCC 27853; MHB with 4 μM FeCl3): 20 µg/mL (≈ 12.6 µM); MIC (P. aeruginosa ATCC 27853; MHB with 6 μM NH4HCO3): 20 µg/mL (≈ 12.6 µM); MIC (P. aeruginosa 9014): 5 µg/mL (≈ 3.15 µM); MIC (P. aeruginosa 9042): 5 µg/mL (≈ 3.15 µM); MIC (A. baumannii 13012): 2.5 µg/mL (≈ 1.57 µM); MIC (A. baumannii 13079): 2.5 µg/mL (≈ 1.57 µM); MIC (A. baumannii 9068): 2.5 µg/mL (≈ 1.57 µM); MIC (A. baumannii 906): 2.5 µg/mL (≈ 1.57 µM); MIC [1, 5]: 10 µg/mL (≈ 6.29 µM); MIC ([1]; MHB with 4 μM FeCl3): 10 µg/mL (≈ 6.29 µM); MIC ([1]; MHB with 6 μM NH4HCO3): 10 µg/mL (≈ 6.29 µM); MIC ([1]; MHB with 1 mM MgCl2): 10 µg/mL (≈ 6.29 µM); MIC ([1]; MHB with 2 mM CaCl2): 10 µg/mL (≈ 6.29 µM); MIC ([1]; MHB with 4.5 mM KCl): 10 µg/mL (≈ 6.29 µM); MIC ([1]; MHB with 150 mM NaCl): 5 µg/mL (≈ 3.15 µM); MIC ([1]; salt sensitivity test, MHB, control without addition of salt ions): 10 µg/mL; MIC (K. pneumoniae 9126): 5 µg/mL (≈ 3.15 µM); cytotoxicity (cell viability) [2]: non-toxic; cytotoxicity (cell viability) [3]: minor cytotoxicity; histopathological examination of liver, spleen and kidney (healthy ICR mice; single intraperitoneal dose 40 mg kg^–1 body weight, 1, 2 and 7 days post-treatment, n = 6, haematoxylin-eosin): no necrosis or drug-induced injury was observed; mice surviving for 7 days (healthy ICR mice; single intraperitoneal dose 80 mg kg^–1 body weight, n = 10): 60%; survival of mice (healthy ICR mice; single intraperitoneal dose 160 mg kg^–1 body weight, n = 10): died within 24 h; survival of mice for 7 days (healthy ICR mice; single intraperitoneal dose up to 40 mg kg^–1 body weight, n = 10 per cohort): all mice; median lethal dose (LD50) (healthy ICR mice; single intraperitoneal injection, ICR mice, 7 days): exceeds 80 mg kg^–1 body weight; MIC against ESBL E. coli, CRE/MDR P. aeruginosa, CRE/MDR A. baumannii [4]: 2.5–10 μg ml^–1
